Source: US6362233B1, “Methoxy capped alkoxylated glycerin compounds” (Phoenix Research Corporation, priority 2001, dated 2002)

Test: Hydrolysis stability test: 10% test material in solution adjusted to pH 5 with lactic acid, placed at 50 C. for 5 days
Format: physicochemical
Conditions: pH adjusted to 5 with lactic acid
From the text: The compounds of the present invention are stable to hydrolysis and provide emollient properties to skin. Typical of the stability of the compounds of the present invention compared to acetate salts is as follows:
pH adjusted to 5 with lactic acid.
10% test material added to get solution.
Placed at 50 C. for 5 days.

Substance	Result (stability to hydrolysis)
Glycereth-7-Methoxy capped	Stable clear liquid
Glycereth-7-acetate	Acetic smell, hydrolyzed
